Laboratory results as given in PubChem BioAssay AID569 (University of Pittsburgh Molecular Library Screening Center, 2006).
The source made the active and inactive calls. The rule behind the calls is not given here.

molecular target: M-phase inducer phosphatase 2 (Homo sapiens) (UniProt P30305); test: Cdc25B phosphatase inhibitor potency retest, dose response, biochemical, catalytic domain, fluorescence, IC50 (AID 569); conditions: recombinant Cdc25B phosphatase, fluorescence substrate
Sequence (P30305 whole entry, looked up, the tested form may be a part): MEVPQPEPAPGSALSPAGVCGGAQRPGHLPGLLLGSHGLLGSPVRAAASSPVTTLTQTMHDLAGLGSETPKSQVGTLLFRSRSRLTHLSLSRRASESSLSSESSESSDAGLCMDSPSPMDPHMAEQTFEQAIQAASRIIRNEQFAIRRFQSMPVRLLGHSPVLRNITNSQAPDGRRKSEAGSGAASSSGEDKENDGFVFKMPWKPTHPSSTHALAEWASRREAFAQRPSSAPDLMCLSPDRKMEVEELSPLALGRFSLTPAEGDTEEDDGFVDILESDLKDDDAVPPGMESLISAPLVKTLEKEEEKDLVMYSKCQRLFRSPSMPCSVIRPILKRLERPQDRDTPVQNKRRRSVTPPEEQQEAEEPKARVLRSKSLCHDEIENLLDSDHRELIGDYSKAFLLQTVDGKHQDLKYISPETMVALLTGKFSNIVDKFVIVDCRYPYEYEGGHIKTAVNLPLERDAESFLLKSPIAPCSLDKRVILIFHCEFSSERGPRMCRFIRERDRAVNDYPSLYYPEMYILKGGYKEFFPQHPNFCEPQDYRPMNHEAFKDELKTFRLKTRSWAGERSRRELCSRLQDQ

SMILES	IC50
N#CC1=C(N)N2C(=C(C#N)C13CCCCC3)SC1CCCCC12O (stereo unspecified)	> 50 µM (inactive)
CCOc1cc(C2C(C#N)=C(N)Oc3n[nH]c(-c4ccccc4)c32)ccc1O (stereo unspecified)	> 50 µM (inactive)
Oc1ccc2ccccc2c1C=NC12CN3CCN(CN(C3)C1)C2	9.53 µM
COc1cccc(N2CCN(C3CC(=O)N(c4cccc(Cl)c4)C3=O)CC2)c1 (stereo unspecified)	> 50 µM (inactive)
O=C1CC(N2CCN(CCc3ccccn3)CC2)C(=O)N1c1ccc(Cl)cc1 (stereo unspecified)	> 50 µM (inactive)
Cc1nc2c(C)cccn2c1/C(O)=C1\C(=O)C(=O)N(CCN(C)C)C1c1ccncc1 (stereo unspecified)	> 50 µM (inactive)
